pIC50: −log10 of the molar value. ≈ marks a conversion by molar mass, not a printed value.

These results are taken from ChEMBL document CHEMBL5029166, “Development of BET inhibitors as potential treatments for cancer: A new carboline chemotype” (Bioorg Med Chem Lett, 2021).

The nature of data set [1]: AUC in mouse at 3 mg/kg, po measured after 24 hrs. Type of data set: ADME, organism-based. Also noted: route oral, dose 3 mg/kg, time 24 hrs. Particulars: in vivo.
Data set [2] is described as follows: Antiproliferative activity against human JJN-3R cells assessed as reduction in cell viability. The format is functional, cell-based.
A short description of data set [3]: Metabolic stability in dog liver microsomes assessed as half life measured upto 120 mins. Type of data set: ADME, Canis lupus familiaris, Microsome.
The nature of data set [4]: Metabolic stability in human liver microsomes assessed as half life measured upto 120 mins. Type of data set: ADME, Microsome.
The target of data set [5] is Bromodomain-containing protein 4 (Homo sapiens, UniProt O60885). The experiment in a line: Inhibition of BRD4 (unknown origin).
Data set [6] is described as follows: Metabolic stability in rat liver microsomes assessed as half life measured upto 120 mins. Type of data set: ADME, Microsome.
The nature of data set [7]: Metabolic stability in monkey liver microsomes assessed as half life measured upto 120 mins. Type of data set: ADME, Microsome. Particulars: macaca.
A short description of data set [8]: Metabolic stability in mouse liver microsomes assessed as half life measured upto 120 mins. Type of data set: ADME, Microsome.
Data set [9] is described as follows: Permeability of the compound by PAMPA. Type of data set: ADME. As to conditions: read-out: permeability.
A short description of data set [10]: Anticancer activity against human TNBC cancer tissue xenografted PDTX mouse model assessed as tumor growth inhibition at 4 mg/kg, po treated 5-day on/2-day off regimen for 2 weeks after 27 days of tumor implantation. As to conditions: Breast carcinoma cell, 336 h, read-out: TGI. Type of data set: functional.
A short description of data set [11]: Anticancer activity against human TNBC cancer tissue xenografted PDTX po dosed mouse model assessed as growth inhibition treated 5-day on/2-day off regimen for 2 weeks after 27 days of tumor implantation. The format is functional. As to conditions: Breast carcinoma cell, 336 h, read-out: MED.
Data set [12] can be described thus: Metabolic stability in human liver microsomes assessed as compound remaining. The format is ADME, Microsome.
The nature of data set [13]: Metabolic stability in mouse liver microsomes assessed as compound remaining. The format is ADME, Microsome.
A short description of data set [14]: Metabolic stability in rat liver microsomes assessed as compound remaining. The format is ADME, Microsome.
Data set [15] can be described thus: Solubility of the compound in pH 6.5 phosphate buffer. The format is physicochemical.

The molecule `Cc1sc2c(c1C)C(c1ccc(Cl)cc1)=N[C@@H](CC(=O)OC(C)(C)C)c1nnc(C)n1-2` gave an AUC at 24 h in [1] of 7.4 µM·h.
`[2H]C([2H])([2H])c1nnn(C)c1-c1cc2c(cc1Cl)c1ncc(C(C)(C)O)cc1n2[C@H](c1ccccc1)C1CCOCC1`: the pIC50 in data set [2] was 6.59.
As for `[2H]C([2H])([2H])c1nnn(C)c1-c1cc2c(cc1F)c1ncc(C(C)(C)O)cc1n2[C@@H](CCC)c1ncccc1F`, the half-life amounted to 14 min in data set [3]; 74 min in data set [4]; 37 min in data set [6]; 36 min in data set [7]; 53 min in data set [8]. Also, the pIC50 in data set [5] was 9.30; in data set [2], 8.62.
Consider `[2H]C([2H])([2H])c1nnn(C)c1-c1cc2c(cn1)c1ncc(C(C)(C)O)cc1n2[C@H](c1ccccc1)C1CCOCC1`, for which the half-life is 120 min in data set [3]; 120 min in data set [4]; 46 min in data set [6]; 92 min in data set [7]; 120 min in [8]. Further, the negative-log IC50 (pIC50) in data set [2] is 7.66.
In the case of `[2H]C([2H])([2H])c1nnn(C)c1-c1cc2c(cc1F)c1ncc(C(C)(C)O)cc1n2[C@H](c1ncccc1F)C1CCOCC1`, the half-life in [3] is 22 min; in [4] it was 95 min; in data set [6], 87 min; in data set [7] it was 21 min; in [8] it was 32 min. In addition, the Papp in [9] is 55 ×10⁻⁶ cm/s. For the same molecule, the inhibition in vivo at 4 mg/kg in data set [10] was found to be 76%. For the same molecule, in data set [11], the minimal effective dose was found to be 4 mg/kg. Moreover, the pIC50 is 9.22 in data set [5] and 8.28 in data set [2]. The AUC at 24 h in data set [1] is 11.1 µM·h.
Turning to `Cc1nnn(C)c1-c1ccc2c3ncc(C(C)(C)O)cc3n([C@H](c3ccccc3)C3CCOCC3)c2c1F`, the Stability in data set [12] is given as 7%; in [13], 72%; in data set [14], 3%. The pIC50 is 8.40 in data set [5] and 8.35 in [2].
`Cc1nnn(C)c1-c1cc2c(cc1F)c1ncc(C(C)(C)O)cc1n2[C@H](c1ccccc1)C1CCOCC1`: the half-life was 22 min in data set [3]; 25 min in [4]; 7 min in data set [6]; 9 min in data set [7]; 21 min in [8]. In addition, the pIC50 was 8.89 in data set [5] and 8.21 in data set [2].
With `Cc1nnn(C)c1-c1ccc2c3ncc(C(C)(C)O)cc3n([C@H](c3ccccc3)C3CCOCC3)c2c1`, the half-life in [3] is 15 min; in data set [4], 7 min; in data set [6] it was 3 min; in [7], 4 min; in [8], 11 min. For the same molecule, the pIC50 in [5] was 9.22; in data set [2], 8.74.
For `[2H]C([2H])([2H])c1nnn(C)c1-c1cc2c(cc1F)c1ncc(C(C)(C)O)cc1n2[C@H](c1cc(C)on1)C1CCOCC1`, the half-life in data set [3] turned out to be 53 min; in [4], 61 min; in data set [6], 1 min; in data set [7], 12 min; in data set [8], 31 min. In addition, in [9], the Papp was found to be 30 ×10⁻⁶ cm/s. Also, the figures for the pIC50 in [5] and in data set [2] were 9.22 and 7.92, respectively.
`Cc1nnn(C)c1-c1cc(F)c2c3ncc(C(C)(C)O)cc3n([C@H](c3ccccc3)C3CCOCC3)c2c1`: the half-life in data set [3] turned out to be 29 min; in data set [4], 9 min; in [6], 10 min; in data set [7], 5 min; in [8] it was 26 min. For the same molecule, the negative logarithm of the IC50 (pIC50) is 9.15 in [5] and 7.29 in data set [2].
As to `[2H]C([2H])([2H])c1nnn(C)c1-c1cc2c(cc1F)c1ncc(C(C)(C)O)cc1n2[C@H](c1ccccc1)C1CCOCC1`, the half-life in data set [3] was determined as 46 min; in [4], 54 min; in [6], 9 min; in [7], 14 min; in data set [8] it was 46 min. For the same molecule, the Papp in [9] is 84 ×10⁻⁶ cm/s. The pIC50 is 9.40 in data set [5] and 8.12 in [2]. In addition, the solubility in [15] was 13 µg/mL (≈ 25.2 µM). In addition, the AUC at 24 h in data set [1] is 10 µM·h.
Turning to `Cc1nnn(C)c1-c1cnc2c3ccc(C(C)(C)O)cc3n([C@H](c3ccccc3)C3CCOCC3)c2c1` [EZOBRESIB], the half-life in data set [3] was 20 min; in data set [4], 36 min; in data set [6], 40 min; in data set [7] it was 11 min; in data set [8], 23 min. The pIC50 in data set [5] was 9.10; in data set [2] it was 8.44.
